Data from US10898475B2, “Bach1 inhibitors in combination with Nrf2 activators and pharmaceutical compositions thereof” (vTv Therapeutics LLC, priority 2014, dated 2021).

Tested on: HMOX1 in Normal Human Lung Fibroblasts (NHLF)
Assay: HMOX1 Protein Expression (immunostaining, fold induction or % positive cells over DMSO)
Settings: for Hill slope of DMF dose response curves in Table 2: % Positive HMOX

- Fold Induction of HMOX (Cpd. 0.019 uM, DMF 0 uM): 1.24 fold
- Fold Induction of HMOX (Cpd. 0.019 uM, DMF 0.03 uM): 1.17 fold
- Fold Induction of HMOX (Cpd. 0.019 uM, DMF 0.1 uM): 1.13 fold
- Fold Induction of HMOX (Cpd. 0.019 uM, DMF 0.3 uM): 1.43 fold
- Fold Induction of HMOX (Cpd. 0.019 uM, DMF 1 uM): 1.57 fold
- Fold Induction of HMOX (Cpd. 0.019 uM, DMF 3 uM): 2.98 fold
- Fold Induction of HMOX (Cpd. 0.019 uM, DMF 10 uM): 4.94 fold
- Fold Induction of HMOX (Cpd. 0.019 uM, DMF 30 uM): 4.23 fold
- Fold Induction of HMOX (Cpd. 0.039 uM, DMF 0 uM): 1.45 fold
- Fold Induction of HMOX (Cpd. 0.039 uM, DMF 0.03 uM): 1.07 fold
- Fold Induction of HMOX (Cpd. 0.039 uM, DMF 0.1 uM): 1.08 fold
- Fold Induction of HMOX (Cpd. 0.039 uM, DMF 0.3 uM): 1.59 fold
- Fold Induction of HMOX (Cpd. 0.039 uM, DMF 1 uM): 1.97 fold
- Fold Induction of HMOX (Cpd. 0.039 uM, DMF 3 uM): 2.84 fold
- Fold Induction of HMOX (Cpd. 0.039 uM, DMF 10 uM): 4.86 fold
- Fold Induction of HMOX (Cpd. 0.039 uM, DMF 30 uM): 4.82 fold
- Fold Induction of HMOX (Cpd. 0.078 uM, DMF 0 uM): 1.46 fold
- Fold Induction of HMOX (Cpd. 0.078 uM, DMF 0.03 uM): 1.12 fold
- Fold Induction of HMOX (Cpd. 0.078 uM, DMF 0.1 uM): 1.21 fold
- Fold Induction of HMOX (Cpd. 0.078 uM, DMF 0.3 uM): 1.43 fold
- Fold Induction of HMOX (Cpd. 0.078 uM, DMF 1 uM): 2.29 fold
- Fold Induction of HMOX (Cpd. 0.078 uM, DMF 3 uM): 3.12 fold
- Fold Induction of HMOX (Cpd. 0.078 uM, DMF 10 uM): 5.06 fold
- Fold Induction of HMOX (Cpd. 0.078 uM, DMF 30 uM): 4.52 fold
- Fold Induction of HMOX (Cpd. 0.156 uM, DMF 0 uM): 1.96 fold
- Fold Induction of HMOX (Cpd. 0.156 uM, DMF 0.03 uM): 1.46 fold
- Fold Induction of HMOX (Cpd. 0.156 uM, DMF 0.1 uM): 1.73 fold
- Fold Induction of HMOX (Cpd. 0.156 uM, DMF 0.3 uM): 2.06 fold
- Fold Induction of HMOX (Cpd. 0.156 uM, DMF 1 uM): 2.87 fold
- Fold Induction of HMOX (Cpd. 0.156 uM, DMF 3 uM): 3.63 fold
- Fold Induction of HMOX (Cpd. 0.156 uM, DMF 10 uM): 5.58 fold
- Fold Induction of HMOX (Cpd. 0.156 uM, DMF 30 uM): 4.99 fold
Structure (SMILES): COCCNC(=O)c1cnc2c(c1)nc(Nc1nc3ccc(OC(F)(F)F)cc3s1)n2C [HPP-B, 3-Methyl-2-(6-trifluoromethoxy-benzothiazol-2-ylamino)-3H-imidazo[4,5-b]pyridine-6-carboxylic acid (2-methoxy-ethyl)-amide]
- Hill slope of DMF dose response curves in Table 2 (Bach1 Inhibitor Conc. 0.019 uM): 2.14
- Hill slope of DMF dose response curves in Table 2 (Bach1 Inhibitor Conc. 0.039 uM): 1.87
- Hill slope of DMF dose response curves in Table 2 (Bach1 Inhibitor Conc. 0.078 uM): 1.25
- Hill slope of DMF dose response curves in Table 2 (Bach1 Inhibitor Conc. 0.156 uM): 1.12
- % Cells Positive HMOX (Cpd. 0.019 uM, DMF 0 uM): 2.31%
- % Cells Positive HMOX (Cpd. 0.019 uM, DMF 0.03 uM): 1.80%
- % Cells Positive HMOX (Cpd. 0.019 uM, DMF 0.1 uM): 2.55%
- % Cells Positive HMOX (Cpd. 0.019 uM, DMF 0.3 uM): 8.27%
- % Cells Positive HMOX (Cpd. 0.019 uM, DMF 1 uM): 7.52%
- % Cells Positive HMOX (Cpd. 0.019 uM, DMF 3 uM): 54.65%
- % Cells Positive HMOX (Cpd. 0.019 uM, DMF 10 uM): 92.63%
- % Cells Positive HMOX (Cpd. 0.019 uM, DMF 30 uM): 84.93%
- % Cells Positive HMOX (Cpd. 0.039 uM, DMF 0 uM): 5.30%
- % Cells Positive HMOX (Cpd. 0.039 uM, DMF 0.03 uM): 1.53%
- % Cells Positive HMOX (Cpd. 0.039 uM, DMF 0.1 uM): 2.54%
- % Cells Positive HMOX (Cpd. 0.039 uM, DMF 0.3 uM): 13.04%
- % Cells Positive HMOX (Cpd. 0.039 uM, DMF 1 uM): 23.13%
- % Cells Positive HMOX (Cpd. 0.039 uM, DMF 3 uM): 75.79%
- % Cells Positive HMOX (Cpd. 0.039 uM, DMF 10 uM): 91.99%
- % Cells Positive HMOX (Cpd. 0.039 uM, DMF 30 uM): 87.54%
- % Cells Positive HMOX (Cpd. 0.078 uM, DMF 0 uM): 8.23%
- % Cells Positive HMOX (Cpd. 0.078 uM, DMF 0.03 uM): 1.72%
- % Cells Positive HMOX (Cpd. 0.078 uM, DMF 0.1 uM): 7.05%
- % Cells Positive HMOX (Cpd. 0.078 uM, DMF 0.3 uM): 10.31%
- % Cells Positive HMOX (Cpd. 0.078 uM, DMF 1 uM): 29.42%
- % Cells Positive HMOX (Cpd. 0.078 uM, DMF 3 uM): 55.22%
- % Cells Positive HMOX (Cpd. 0.078 uM, DMF 10 uM): 94.55%
- % Cells Positive HMOX (Cpd. 0.078 uM, DMF 30 uM): 86.84%
- % Cells Positive HMOX (Cpd. 0.156 uM, DMF 0 uM): 11.32%
- % Cells Positive HMOX (Cpd. 0.156 uM, DMF 0.03 uM): 8.51%
- % Cells Positive HMOX (Cpd. 0.156 uM, DMF 0.1 uM): 18.49%
- % Cells Positive HMOX (Cpd. 0.156 uM, DMF 0.3 uM): 30.11%
- % Cells Positive HMOX (Cpd. 0.156 uM, DMF 1 uM): 57.70%
- % Cells Positive HMOX (Cpd. 0.156 uM, DMF 3 uM): 79.63%
- % Cells Positive HMOX (Cpd. 0.156 uM, DMF 10 uM): 99.72%
- % Cells Positive HMOX (Cpd. 0.156 uM, DMF 30 uM): 98.17%
- combination effect in terms of the % HMOX positive cells (combination with DMF at concentrations below their maximum effect (Table 2)): additive or greater than additive
- change of Hill slope of the DMF dose response curve (FIG. 5) (upon increasing amounts of the Bach1 Inhibitor): reduced
